# Reference: patent publication US20250057997A1, “CONJUGATES COMPRISING COVALENT BINDERS FOR TARGETING INTRACELLULAR PROTEINS” (RayzeBio, Inc., priority 2021, published 2025)
# Target: T1, mutant EGFR (T790M, L858R) (Homo sapiens, UniProt P00533, L858R/T790M)
# T1 construct: The EGFR constructs span amino acids R669 to V1011 of the EGFR protein; made in house; host or cells: E. coli derived from BL21 (T7 phage) for most assays; remaining kinases in HEK-293 cells
# Assay: In vitro kinase assay (phage/DNA-tagged kinase competition binding, qPCR readout), mutant EGFR
# Settings: EGFR construct R669 to V1011; 11-point 3-fold dilution series; 1 hour at room temperature
# Description: For most assays, kinase-tagged T7 phage strains were prepared in an E. coli host derived from the BL21 strain. For the EGFR assays, wild-type EGFR, or mutant EGFR (T790M, L858R) were utilized. The EGFR constructs span amino acids R669 to V1011 of the EGFR protein. E. coli were grown to log-phase and infected with T7 phage and incubated with shaking at 32° C. until lysis. The lysates were centrifuged and filtered to remove cell debris. The remaining kinases were produced in HEK-293 cells and subsequently tagged with DNA for qPCR detection. Streptavidin-coated magnetic beads were treated with biotinylated small molecule ligands for 30 minutes at room temperature to generate affinity resins for kinase assays. The liganded beads were blocked with excess biotin and washed with blocking buffer (SeaBlock (Pierce), 1% BSA, 0.05% Tween 20, 1 mM DTT) to remove unbound ligand and to reduce non-specific binding. Binding reactions were assembled by combining kinases, liganded affinity beads, and test compounds in 1× binding buffer (20% SeaBlock, 0.17×PBS, 0.05% Tween 20, 6 mM DTT). Test compounds were prepared as 111× stocks in 100% DMSO. Kds were determined using an 11-point 3-fold compound dilution series with three DMSO control points. All compounds for Kd measurements are distributed by acoustic transfer (non-contact dispensing) in 100% DMSO. The compounds were then diluted directly into the assays such that the final concentration of DMSO was 0.9%. All reactions performed in polypropylene 384-well plate. Each was a final volume of 0.02 ml. The assay plates were incubated at room temperature with shaking for 1 hour and the affinity beads were washed with wash buffer (1×PBS, 0.05% Tween 20). The beads were then re-suspended in elution buffer (1×PBS, 0.05% Tween 20, 0.5 μM nonbiotinylated affinity ligand) and incubated at room temperature with shaking for 30 minutes. The kinase concentration in the eluates was measured by qPCR.
# T1 sequence (P00533 669-1011 T790M/L858R): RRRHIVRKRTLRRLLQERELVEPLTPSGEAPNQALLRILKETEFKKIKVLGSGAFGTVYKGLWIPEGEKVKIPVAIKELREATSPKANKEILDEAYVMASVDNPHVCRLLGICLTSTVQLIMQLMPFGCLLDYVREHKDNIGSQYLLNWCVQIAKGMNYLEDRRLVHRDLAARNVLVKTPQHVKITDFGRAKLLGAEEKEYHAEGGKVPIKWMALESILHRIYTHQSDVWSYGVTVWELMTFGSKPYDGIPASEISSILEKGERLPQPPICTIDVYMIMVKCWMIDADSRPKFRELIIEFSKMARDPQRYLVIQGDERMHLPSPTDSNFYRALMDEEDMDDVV
row,Compound,Kd [nM]
1,"C=CC(=O)N[C@@H]1CN(c2nc(Nc3cn(CCCCCNC(=O)CN4CCN(CC(=O)O)CCN(CC(=O)O)CCN(CC(=O)O)CC4)nc3OC)c3ncn(C)c3n2)C[C@H]1F [Compound 002, 2-[4,7-bis(carboxymethyl)-10-[2-[5-[4-[[2-[(3R,4R)-3-fluoro-4-(prop-2-enoylamino)pyrrolidin-1-yl]-9-methyl-purin-6-yl]amino]-3-methoxy-pyrazol-1-yl]pentylamino]-2-oxo-ethyl]-1,4,7,10-tetrazacyclododec-1-yl]acetic acid]",< 1

# Same assay, conditions: ratio of Kd EGFR (WT) to Kd EGFR (L858R, T790M) double mutant
row,Compound,Binding Affinity ratio of WT/DM
1,"C=CC(=O)N1C[C@H](COc2nc(Nc3cnn(CCCCCNC(=O)CN4CCN5CCN6CCN(CC4)CC(=O)[O][Lu]([O]C(=O)C5)[O]C(=O)C6)c3)nc3[nH]cc(Cl)c23)[C@@H](OC)C1 [Compound 007-Lu, N-[5-[4-[[5-chloro-4-[[(3R,4R)-4-methoxy-1-prop-2-enoyl-pyrrolidin-3-yl]methoxy]-7H-pyrrolo[2,3-d]pyrimidin-2-yl]amino]pyrazol-1-yl]pentyl]-2-(3,16,19-trioxo-2,17,18-trioxa-5,8,11,14-tetraza-1λ3-lutetatricyclo[9.6.3.25,14]docosan-8-yl) acetamide]",C (100 < C ≤ 1000)
2,C=CC(=O)N[C@@H]1CN(c2nc(Nc3cn(CCCCCNC(=O)CN4CCN5CCN6CCN(CC4)CC(=O)[O][Lu]([O]C(=O)C5)[O]C(=O)C6)nc3OC)c3ncn(C(C)(C)C)c3n2)C[C@H]1F [Compound 004-Lu],B (25 < B ≤ 100)
3,C=CC(=O)N[C@@H]1CN(c2nc(Nc3cn(CCCCCNC(=O)CN4CCN5CCN6CCN(CC4)CC(=O)[O][Lu]([O]C(=O)C5)[O]C(=O)C6)nc3CC)c3ncn(C(C)(C)C)c3n2)C[C@H]1F [Compound 005-Lu],C (100 < C ≤ 1000)
4,C=CC(=O)N[C@@H]1CN(c2nc(Nc3cn(CCCNC(=O)CN4CCN5CCN6CCN(CC4)CC(=O)[O][Lu]([O]C(=O)C5)[O]C(=O)C6)nc3OC)c3ncn(C)c3n2)C[C@H]1F [Compound 001-Lu],A (4 < A ≤ 25)
5,"C=CC(=O)N[C@@H]1CN(c2nc(Nc3cn(CCCCCNC(=O)CN4CCN(CC(=O)O)CCN(CC(=O)O)CCN(CC(=O)O)CC4)nc3OC)c3ncn(C)c3n2)C[C@H]1F [Compound 002, 2-[4,7-bis(carboxymethyl)-10-[2-[5-[4-[[2-[(3R,4R)-3-fluoro-4-(prop-2-enoylamino)pyrrolidin-1-yl]-9-methyl-purin-6-yl]amino]-3-methoxy-pyrazol-1-yl]pentylamino]-2-oxo-ethyl]-1,4,7,10-tetrazacyclododec-1-yl]acetic acid]",A (4 < A ≤ 25)
